Where no end group is shown, it is not given here.
Experiments:
[1] = test system: tumor infiltrating lymphocytes (TILs) obtained from a patient with advanced pancreatic cancer; experiment: Reactivity of tumor infiltrating lymphocytes (TILs), standard proliferation assay; format: cell-based, human; conditions: CD3+, CD4+, CD8− T cell line
Source text: FIGS. 3 and 4 (FIG. 3 and FIG. 4) show the reactivity of tumor infiltrating lymphocytes (TILs) obtained from a patient with advanced pancreatic cancer. The T cells were obtained from a tumor biopsy and were successfully propagated in vitro to establish a T cell line. The T cell line was CD3+, CD4+ and CD8−, and proliferated specifically in response to the telomerase peptides. The results in FIG. 3 show T cells that recognize the peptides with SEQ ID NOs: 2 and 3 when compared to controls with medium alone. The results in FIG. 4 show T cells that recognize the peptide with SEQ ID NO:2. The TILs were expanded by co-culturing with recombinant human interleukin 2 (rIL-2) and tested after 14 days in standard proliferation assay using peptides with SEQ ID NOs: 2, 3, 4 and 7.

[2] = test system: hTERT expressing target cells (Jurkat) transfected with HLA-A2 (A2/K^b); conditions: FIG. 1; T cells from mice primed with the peptide; target cells pulsed with control peptide (influenza 58-66); different effector to target ratios; 4 hours
[3] = test system: peripheral blood T cells from a patient with colon cancer; experiment: In vitro stimulation of peripheral blood T cells from a cancer patient, T cell proliferative assay (3H-thymidine); format: cell-based, human; conditions: FIG. 2; peptide 30 μg/ml; 10^5 mononuclear cells; cultures without peptide as control
Method: In vitro culture was performed as follows: Triplicates of 105 mononuclear cells were incubated for […] in X-VIVO 10 medium supplemented with 15% pooled heat inactivated human serum in a humidified incubator in 5% CO2. Peptides were present throughout culture at a final concentration of 30 μg/ml in the medium. Cultures without peptide served as control. […] Furthermore, one component of the telomerase specific response in this patient is directed against the peptide with SEQ ID NO:4 described here. […] The figure depicts the results of conventional T cell proliferative assays, where peripheral blood mononuclear cells (10^5) were cultured with peptides as indicated for 7 days in triplicates before harvesting. To measure the proliferative capacity of the cultures, 3H-thymidine (3.7×10^4 Bq/well) was added to the culture overnight before harvesting. Values are given as mean counts per minute (cpm) of the triplicates.

[4] = FIG. 3, compared to controls with medium alone

Sequence: EARPALLTSRLRFIPK [SEQ ID NO:2]
- recognition of peptide by TIL T cells (proliferation) [1, 4]: recognize
- recognition of peptide by TIL T cells (proliferation) ([1]; FIG. 4): recognize

Sequence: ILAKFLHWL [SEQ ID NO:9]
- specific cytotoxicity (killing of HLA-A2 transfected Jurkat cells) [2]: Specific cytotoxicity above background was observed at all effector to target ratios

Sequence: DGLRPIVNMDYVVGAR [SEQ ID NO:3]
- recognition of peptide by TIL T cells (proliferation) [1, 4]: recognize

Sequence: GVPEYGCVVNLRKVVNF (GVPEYGCVVNLRKTVVNF) [SEQ ID NO:4]
- proliferative response of T cells (3H-thymidine, mean cpm) [3]: proliferative response above background values

Source: US7794723B2, “Antigenic peptides derived from telomerase” (GemVax AS, priority 1998, dated 2010)
